Assay results: ChEMBL document CHEMBL5729348, “Heterocyclic compounds for the inhibition of PASK” (2022)

Biological target: PAS domain-containing serine/threonine-protein kinase (Homo sapiens, UniProt Q96RG2)
Assay: PAS Kinase FRET Assay: The aim of the FRET assay is to determine the inhibition potential of test compounds on targeted kinase. This assay platform provides a homogenous screening method for measuring kinase activity by quantitating the amount of phospho-substrate in solution following a kinase reaction.In the presence of kinase and ATP, the Ulight-peptide is phosphorylated and captured by an anti-phospho-substrate antibody, which brings the Eu chelate donor and Ulight acceptor dyes into close proximity. Upon excitation at 340 nm, the Eu chelate transfers its energy to the Ulight dye, resulting in a fluorescent light emission at 665 nm.Titration of kinase at 1 mM ATP was achieved via the following protocol. After making serial three-fold dilutions of PASK (Invitrogen) in reaction buffer across the plate; 5 μl of kinase dilution and 5 μl substrate/ATP mix were added to the wells of the white Optiplate-384 (PerkinElmer). The contents of the plate were and incubated at RT for 1 h. The reaction was stopped by adding 5 μl of stop solution to each test well followed by mixing and incubation at RT for 10 minutes. 5 μl of detection mix (detection antibody diluted in detection buffer) was added; the contents of the plate were mixed and then incubated in the dark for 1 hour at RT. The signal was recorded at TR-FRET mode (665 nm/615 nm). The results were graphed to calculate the EC50. […]

PAS domain-containing serine/threonine-protein kinase, sequence (Q96RG2 whole entry, the tested form may be a part): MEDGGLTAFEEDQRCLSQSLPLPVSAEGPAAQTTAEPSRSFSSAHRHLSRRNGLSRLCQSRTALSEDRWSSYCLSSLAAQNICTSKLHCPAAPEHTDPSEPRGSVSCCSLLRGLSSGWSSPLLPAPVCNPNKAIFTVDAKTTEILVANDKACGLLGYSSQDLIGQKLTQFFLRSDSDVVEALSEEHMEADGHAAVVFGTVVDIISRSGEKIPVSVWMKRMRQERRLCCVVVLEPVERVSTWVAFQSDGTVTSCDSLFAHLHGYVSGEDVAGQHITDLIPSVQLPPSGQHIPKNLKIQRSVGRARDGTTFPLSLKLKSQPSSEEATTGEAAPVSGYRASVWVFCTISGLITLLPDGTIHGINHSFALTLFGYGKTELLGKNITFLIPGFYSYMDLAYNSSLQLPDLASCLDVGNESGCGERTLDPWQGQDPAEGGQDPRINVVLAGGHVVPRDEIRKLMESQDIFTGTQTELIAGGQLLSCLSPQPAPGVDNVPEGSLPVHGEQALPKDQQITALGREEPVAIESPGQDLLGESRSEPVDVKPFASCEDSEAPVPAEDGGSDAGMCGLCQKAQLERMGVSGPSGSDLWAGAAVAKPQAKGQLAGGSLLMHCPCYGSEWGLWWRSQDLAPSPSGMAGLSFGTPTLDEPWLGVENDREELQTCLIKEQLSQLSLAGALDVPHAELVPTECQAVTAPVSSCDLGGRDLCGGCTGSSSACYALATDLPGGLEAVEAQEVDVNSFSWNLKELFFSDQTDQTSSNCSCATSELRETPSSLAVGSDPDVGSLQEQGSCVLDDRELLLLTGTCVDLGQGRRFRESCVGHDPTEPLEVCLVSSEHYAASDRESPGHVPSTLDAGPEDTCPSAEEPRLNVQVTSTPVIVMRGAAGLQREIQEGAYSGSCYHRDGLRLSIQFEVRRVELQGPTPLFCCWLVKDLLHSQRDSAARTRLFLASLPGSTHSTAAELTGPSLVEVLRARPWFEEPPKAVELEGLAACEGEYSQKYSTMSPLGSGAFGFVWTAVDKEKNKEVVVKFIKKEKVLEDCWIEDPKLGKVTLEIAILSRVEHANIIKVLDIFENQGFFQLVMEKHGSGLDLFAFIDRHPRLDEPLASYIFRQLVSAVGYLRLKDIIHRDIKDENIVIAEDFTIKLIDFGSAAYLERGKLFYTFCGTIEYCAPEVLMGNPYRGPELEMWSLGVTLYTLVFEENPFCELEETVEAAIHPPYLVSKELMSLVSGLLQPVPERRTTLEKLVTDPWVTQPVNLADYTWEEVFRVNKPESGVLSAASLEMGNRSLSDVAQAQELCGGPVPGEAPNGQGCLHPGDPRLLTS

Q: Which IC50 does the source give for `CN(c1nc2cc(C(=O)O)ccc2nc1-c1ccc(F)cc1)C1CCNCC1` here?
A: The IC50 was < 10 µM.
